Measurements reported in patent US10960088B2, “Macrocycles, cobalt and iron complexes of same, and methods of making and using same” (The Research Foundation for The State University of New York, priority 2013, dated 2021).

Key:
[1] = Dissociation of complex over time monitored by 1H NMR; format: physicochemical; conditions: for % Dissociation Anions / % Dissociation Acidic: 10 mM Co^II complex; for % Dissociation Anions: 0.40 mM Na2HPO4, 25 mM K2CO3, 100 mM NaCl, pD 7.5-7.9, 12 hours at 37° C.; for % Dissociation Acidic: pD 3.5-3.9, 100 mM NaCl, 12 hours at 37° C.; for dissociation in presence of phosphate and carbonate (in words) / dissociation under acidic conditions (in words): 10 mM complex, 100 mM NaCl; for dissociation in presence of phosphate and carbonate (in words): 0.40 mM Na2HPO4, 25 mM K2CO3, pD 7.5-7.9, 12 hrs at 37° C.; for dissociation under acidic conditions (in words): D2O, pD 3.5-3.9, 1 hr vs 12 hrs (NOPE 4 hrs) at 37° C.
Experimental: Dissociation of the Co^II complexes was monitored via ^1H NMR spectroscopy of samples incubated at 37° C. over a period of 12 hours. To monitor acid dissociation, samples contained 10 mM Co^II complex, 100 mM NaCl, and 3-5 mM 3-(trimethylsilyl)-1-propanesulfonic acid sodium salt as a standard at pD 3.5-3.9. To assess the complexes in the presence of biologically relevant anions, solutions contained 10 mM Co^II complex, 100 mM NaCl, 0.40 mM Na2HPO4, 25 mM K2CO3, and 5 mM 3-(trimethylsilyl)-1-propanesulfonic acid sodium salt as a standard. Generally, 1024 transients were collected for each spectrum. […]

[2] = Effective magnetic moment in solution from magnetic susceptibility (NMR); format: physicochemical; conditions: for μeff: 5 mM Co^II complex in D2O; for magnetic moment: 25° C. in D2O
Experimental: The effective magnetic moment (μeff) was calculated by using a previously known method. 5 mM Co^II complex and 5% t-butanol by volume was placed in a NMR insert while the outer NMR tube contained 5% by volume t-butanol in D2O. The μeff was calculated at 298 K (T) and monitored over a period of 72 hours using the following approach.
The mass susceptibility of solute (χg) was calculated by obtaining the observed frequency shift of the reference (Δf) in Hz, the spectrometer frequency (f) in Hz, the mass of the substance per cm^3 of solution (m), and the mass susceptibility of solvent D2O (χ0=−0.6466×10^−6 cm^3/g). The last term is neglected due to the minimal contribution to mass susceptibility of solute. The molar susceptibility (χm) is the product of χg multiplied by the molecular weight of the Co^II complex.
The effective magnetic moment was calculated by using a previously known method. In a typical experiment, oxygen-free solution of 8-20 mM [Co(TPT)]^2+ in deuterium oxide, pD 7.0, containing 5% tert-butanol by volume was placed in an NMR tube, while a reference solution of 5% tert-butanol (v/v) in deuterium oxide, pD 7.0, was placed into NMR tube insert. All solutions of [Co(TPT)]^2+ were purged with argon and kept in the absence of air. The effective magnetic moment (μeff) was calculated at 298 K (T) using the following equations 7-8. In these equations the mass susceptibility of solute (χg) was calculated by obtaining the observed frequency shift of the reference (Δf) in Hz, the spectrometer frequency (f) in Hz, the mass of the substance per cm^3 of the solution (m), and the mass susceptibility of deuterium oxide (χ0=−0.6466×10^−6 cm^3/g). The last term in eq. SI is neglected due to the minimal contribution to mass susceptibility of solute. The molar susceptibility (χm) is the product of χg multiplied by the molecular weight of the [Co(TPT)]Cl2 complex. Reported value of the effective magnetic moment was obtained by averaging of three independent experiments. χg=(−3Δf)/(4πfm)+χ0+[χ0(d0−ds)]/m eq. 7 μeff=2.84(χmT)^1/2 eq. 8

[3] = CEST MR phantom imaging on 4.7 T scanner; conditions: 4 mM complex, pH 7.4-7.5, 37° C.; for % CEST: 20 mM HEPES, 100 mM NaCl, 4.7 T MRI scanner
Experimental: CEST MR images were acquired at 4.7 Tesla preclinical MR scanner using a 35 mm transceiver coil (ParaVision 3.0.2, Bruker Biospin, Billerica, Mass.) as detailed elsewhere. Two spoiled gradient-echo images (TE/TR=2.1/5010 ms, flip angle=90 deg) were acquired at 37° C. after employing a pulse train comprised of five Gauss pulses ([…] for 1 second each, interpulse delay of 200 μs) applied symmetrically about the bulk water resonance.
Image processing was carried out using in-house software algorithms developed in MATLAB (MathWorks, Natick, Mass.). Each image was normalized to the mean intensity of the buffer/salt phantom, and the mean signal intensity of each compound was sampled. The percent change in signal, or CEST effect (CE), was calculated as: CE=(1−SIon/SIoff)*100%, where SIon and SIoff represent the mean signal intensity of each sample with the pre-saturation pulse applied on- and off-resonance of the exchangeable protons, respectively. CEST images (FIGS. 14, 15) were calculated by determining CE on a pixel-by-pixel basis in MATLAB. To improve visualization of the CEST effect, images were filtered with a spatial averaging filter (kernel size=5×5), background noise was removed using a binary mask of the samples, and a ‘hotiron’ color lookup table was applied. […] Imaging parameters for the FID-FISP acquisition include: matrix=128×128, field of view=3.2×3.2 cm, TE/TR=1.5/3.0 ms, flip angle=90, number of repetitions=20. Processing was carried out as above with the exception that the 20 repetition image datasets were averaged together prior to normalization by the buffer signal intensity. The experiment was repeated with three separate preparations of [Co(CCRM)]^2+.
CEST images were acquired on a 4.7 Tesla preclinical MR scanner using a 35 mm radiofrequency coil and the ParaVision 3.0.2 research platform (Bruker Biospin, Billerica, Mass.). A pair of gradient-echo MR images were acquired at either 37° C. with a pre-saturation pulse train comprised of five 1 second Gauss pulses (12 μT, 200 μs interpulse delay) applied symmetrically about the bulk water resonance (+/−135 ppm). Other pertinent acquisition parameters include: echo time/repetition time=2.1/5010 ms, flip angle=90 deg, acquisition matrix=160×160, slice thickness=2 mm, field of view=32×32 mm, averages=1.
To determine the CEST effect, each image was normalized to the signal intensity of the buffer and salt-only phantom and the normalized image intensity of each phantom was sampled using commercially available software (Analyze 7.0, AnalyzeDirect Inc., Overland Park, Kans.). The percent loss of signal due to […] exchange was calculated using the following equation: % CEST=1−SIon/SIoff, eq. 9 where SIon and SIoff are the image intensities of each sample acquired with on-resonance and off-resonance pre-saturation pulses, respectively. To create the CEST image (FIG. 46), raw k-space data was zero-filled to a 512×512 matrix, reconstructed to spatial domain, filtered with a spatial low-pass filter (kernel size: 11×11) to improve signal-to-noise, and then normalized by image intensity of the buffer and salt-only phantom. The % CEST effect was calculated pixel-by-pixel using the normalized on/off resonance image pair in MATLAB (MathWorks, Natick, Mass.). Phantoms in the CEST image were isolated using binary masking techniques, and a “hot-iron” pseudocolor lookup table was applied to enhance perceptual contrast between samples.

[4] = Displacement of Co^II by Cu^II monitored by UV-vis; format: physicochemical; conditions: 10-fold excess of Cu^II
Experimental: Samples contained 200 μM Co^II complex, 10 mM MES buffer pH 5.5 and 1, 4, or 10 equivalents of CuCl2. The formation of the Cu^II complexes was monitored at 264 nm, 286 nm, 312 nm and 310 nm for [Cu(TCMT)]^2+, [Cu(NOPE)]^2+, [Cu(TCMC)]^2+, and [Cu(CCRM)]^2+, respectively. A previously reported procedure was followed.

Row | % Dissociation Anions [1] [%] | % Dissociation Acidic [1] [%] | dissociation in presence of phosphate and carbonate (in words) [1] | dissociation under acidic conditions (in words) [1] | μeff [2] [µB] | magnetic moment [2] [μB] | dissociation with competing Cu^II ([4]; over 4 hours) [%] | dissociation with competing Cu^II (in words) [4] | dissociation under acidic conditions within the first hour ([1]; pD 3.5-3.9, 37° C., first hour) [%] | Structure (SMILES) | % CEST [3] [%] | % CEST, peak at 95 ppm ([3]; peak at 95 ppm, 4.7 T) [%] | % CEST, peak at 112 ppm ([3]; peak at 112 ppm, 4.7 T) [%]
1 | 5 | 1 | doesn't dissociate | doesn't dissociate | 5.2 | 5.2 | ~15 | – | – | NC(=O)CN1CCN(CC(N)=O)CCN(CC(N)=O)CC1.[Co+2] [[Co(TCMT)]^2+] | 8 | – | –
2 | <1 | 16 | doesn't dissociate | doesn't dissociate | 4.1 | 4.1 | – | dissociating completely within one hour | – | NC(=O)CN1CCOCCOCCN(CC(N)=O)CCOCC1.[Co+2] [[Co(NOPE)]^2+] | 12 | – | –
3 | 2 | 7 | doesn't dissociate | doesn't dissociate | 4.5 | 4.5 | – | inert to dissociation | – | NC(=O)CN1CCN(CC(N)=O)CCN(CC(N)=O)CCN(CC(N)=O)CC1.[Co+2] [[Co(TCMC)]^2+] | 12 | – | –
4 | 5 | 95 | doesn't dissociate | doesn't dissociate | 4.6 | 4.6 | – | dissociating completely within one hour | 95 | NC(=O)CN1CCCN(CC(N)=O)CCN(CC(N)=O)CCCN(CC(N)=O)CC1.[Co+2] [[Co(CCRM)]^2+] | – | 5 | 8
